Molecular target: T1, mouse GnRH receptor (Mus musculus, UniProt Q01776)
T1 construct: expressed in transfected cells; host or cells: 293 cells
T1 sequence (Q01776 1-327): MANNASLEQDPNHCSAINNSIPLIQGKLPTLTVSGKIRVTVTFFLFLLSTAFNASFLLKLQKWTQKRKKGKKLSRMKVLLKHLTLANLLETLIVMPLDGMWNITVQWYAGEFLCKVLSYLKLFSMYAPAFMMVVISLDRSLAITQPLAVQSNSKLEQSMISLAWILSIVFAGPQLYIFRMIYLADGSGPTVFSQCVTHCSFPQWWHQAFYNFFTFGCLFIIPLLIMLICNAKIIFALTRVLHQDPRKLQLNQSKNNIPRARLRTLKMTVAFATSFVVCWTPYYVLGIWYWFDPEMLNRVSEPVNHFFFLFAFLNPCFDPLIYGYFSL
Assay: Radioligand binding, 125I-GnRH-A, 293 cells expressing mouse GnRH receptors
Settings: 10 uM; read-out: % Inhib. @ 10 uM mGnRH
How it was run: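 Bound label captured on 0.1% polyethyleneimine-treated GF/C filters, washed three times with PBS, counted. IC50 derived; identical set-up for every species.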

| SMILES | inhibition at 10 µM [%] |
| --- | --- |
| COc1cccc(N2CCN(C(=O)c3ccc(Cc4cc5c(cc4C)C(C)(C)CCC5(C)C)o3)CC2C)c1 (stereo not drawn) [drawing 1513] | 76 |
| Cc1cc2c(cc1Cc1ccc(C(=O)NCCC3OCCO3)o1)C(C)(C)CCC2(C)C [drawing 1591] | 104 |
| Cc1cc2c(cc1Cc1ccc(C(=O)N3CCN(C(=O)c4ccco4)CC3)o1)C(C)(C)CCC2(C)C [drawing 1264] | 89 |
| Cc1cc2c(cc1Cc1ccc(C(=O)N3CCC(C)CC3)o1)C(C)(C)CCC2(C)C [drawing 1493] | 82 |
| Cc1cc2c(cc1Cc1ccc(C(=O)NCCSCCO)o1)C(C)(C)CCC2(C)C [drawing 1498] | 101 |
| CCCN(CC1CC1)C(=O)c1ccc(Cc2cc3c(cc2C)C(C)(C)CCC3(C)C)o1 | 96 |
| Cc1cc2c(cc1Cc1ccc(C(=O)NC[C@@H](C)c3ccccc3)o1)C(C)(C)CCC2(C)C | 70 |
| Cc1cc2c(cc1Cc1ccc(C(=O)N(C)CC(O)c3ccc(O)cc3)o1)C(C)(C)CCC2(C)C (stereo not drawn) | 34 |
| COC(=O)C1SCCN1C(=O)c1ccc(Cc2cc3c(cc2C)C(C)(C)CCC3(C)C)o1 (stereo not drawn) | 39 |
| Cc1cc2c(cc1Cc1ccc(C(=O)N(Cc3ccoc3)C3CCN(Cc4ccccc4)C3)o1)C(C)(C)CCC2(C)C (stereo not drawn) [drawing 1561] | 91 |
| COc1ccc(C(NC(=O)c2ccc(Cc3cc4c(cc3C)C(C)(C)CCC4(C)C)o2)C2CC2)cc1 (stereo not drawn) [drawing 1435] | 83 |
| Cc1cc2c(cc1Cc1ccc(C(=O)NCCc3ccc(OCc4ccccc4)c(OCc4ccccc4)c3)o1)C(C)(C)CCC2(C)C | 20 |
| Cc1cc2c(cc1Cc1ccc(C(=O)N3CCCCC3CO)o1)C(C)(C)CCC2(C)C (stereo not drawn) | 84 |
| CCCNC(=O)c1ccc(Cc2cc3c(cc2C)C(C)(C)CCC3(C)C)o1 [drawing 1274] | 93 |
| Cc1cc2c(cc1Cc1ccc(C(=O)N3Cc4ccccc4CC3C(=O)NCC(c3ccccc3)c3ccccc3)o1)C(C)(C)CCC2(C)C (stereo not drawn) | 9 |
| Cc1cc2c(cc1Cc1ccc(C(=O)N(CCN(C)C)Cc3ccccc3)o1)C(C)(C)CCC2(C)C [drawing 1255] | 104 |
| CCOC(=O)CN1CCN(C(=O)c2ccc(Cc3cc4c(cc3C)C(C)(C)CCC4(C)C)o2)CC1 | 66 |
| Cc1cc2c(cc1Cc1ccc(C(=O)N(CCCO)CCC(C)CCCC(C)(C)O)o1)C(C)(C)CCC2(C)C (stereo not drawn) | 99 |
| Cc1ccc(C(C)NC(=O)c2ccc(Cc3cc4c(cc3C)C(C)(C)CCC4(C)C)o2)cc1 (stereo not drawn) | 97 |
| Cc1cc2c(cc1Cc1ccc(C(=O)N3CCN(C4Nc5ccccc5Oc5ccc(Cl)cc54)CC3)o1)C(C)(C)CCC2(C)C (stereo not drawn) | 5 |
| Cc1cc2c(cc1Cc1ccc(C(=O)N3CCN(C(=O)OC(C)(C)C)CC3)o1)C(C)(C)CCC2(C)C | 90 |
| Cc1cc2c(cc1Cc1ccc(C(=O)N3Cc4ccccc4CC3CO)o1)C(C)(C)CCC2(C)C (stereo not drawn) | 61 |
| Cc1cc2c(cc1Cc1ccc(C(=O)NCCN(C(C)C)C(C)C)o1)C(C)(C)CCC2(C)C | 102 |

| SMILES | inhibition at 10 µM [%] |
| --- | --- |
| COC(CNC(=O)c1ccc(Cc2cc3c(cc2C)C(C)(C)CCC3(C)C)o1)OC [drawing 1505] | 103 |
| Cc1cc2c(cc1Cc1ccc(C(=O)N3CCCC(C)(C)C3)o1)C(C)(C)CCC2(C)C [drawing 1523] | 98 |
| CCN1CC(N(CCC(C)CCCC(C)(C)O)C(=O)c2ccc(Cc3cc4c(cc3C)C(C)(C)CCC4(C)C)o2)CN1CC (stereo not drawn) [drawing 1567] | 104 |
| Cc1cc2c(cc1Cc1ccc(C(=O)NCc3ccccc3-c3ccccc3)o1)C(C)(C)CCC2(C)C [drawing 1372] | 74 |
| Cc1cc2c(cc1Cc1ccc(C(=O)N3CCc4[nH]c5c(F)cccc5c4C3)o1)C(C)(C)CCC2(C)C | 46 |
| CCOC(=O)CC(C)NC(=O)c1ccc(Cc2cc3c(cc2C)C(C)(C)CCC3(C)C)o1 (stereo not drawn) | 88 |
| CCCCN(C(=O)c1ccc(Cc2cc3c(cc2C)C(C)(C)CCC3(C)C)o1)C(C)c1ccccc1 (stereo not drawn) [drawing 1275] | 65 |
| COc1ccc(CCN(CC(C)c2ccccc2)C(=O)c2ccc(Cc3cc4c(cc3C)C(C)(C)CCC4(C)C)o2)cc1OC (stereo not drawn) | 72 |
| Cc1cc2c(cc1Cc1ccc(C(=O)N3CCCCC3CCO)o1)C(C)(C)CCC2(C)C (stereo not drawn) | 100 |
| Cc1cc2c(cc1Cc1ccc(C(=O)N(Cc3ccccc3)C(C)C)o1)C(C)(C)CCC2(C)C [drawing 1541] | 84 |
| Cc1cc2c(cc1Cc1ccc(C(=O)N3CCN(CCOCCO)CC3)o1)C(C)(C)CCC2(C)C [drawing 1252] | 63 |
| Cc1cc2c(cc1Cc1ccc(C(=O)N3CCC(NC(=O)OC(C)(C)C)C3)o1)C(C)(C)CCC2(C)C (stereo not drawn) [drawing 1544] | 82 |
| COc1ccc(CCN(CC(C)C)C(=O)c2ccc(Cc3cc4c(cc3C)C(C)(C)CCC4(C)C)o2)cc1OC | 90 |
| Cc1cc2c(cc1Cc1ccc(C(=O)NCC(C)(C)CO)o1)C(C)(C)CCC2(C)C [drawing 1438] | 84 |
| Cc1ccc(CN(CCCN2CCOCC2)C(=O)c2ccc(Cc3cc4c(cc3C)C(C)(C)CCC4(C)C)o2)cc1 | 103 |
| COc1cc(CN(Cc2ccncc2)C(=O)c2ccc(Cc3cc4c(cc3C)C(C)(C)CCC4(C)C)o2)ccc1OCc1ccccc1 | 64 |
| Cc1cc2c(cc1Cc1ccc(C(=O)NCCN3CCN(c4nccc(NCC5CCCO5)n4)CC3)o1)C(C)(C)CCC2(C)C (stereo not drawn) | 96 |
| CCCCN(CCC#N)C(=O)c1ccc(Cc2cc3c(cc2C)C(C)(C)CCC3(C)C)o1 | 87 |
| Cc1cc2c(cc1Cc1ccc(C(=O)N3CCC(O)(c4ccc(Cl)cc4)CC3)o1)C(C)(C)CCC2(C)C [drawing 1423] | 43 |
| COc1ccccc1CN(CCC(c1ccccc1)c1ccccc1)C(=O)c1ccc(Cc2cc3c(cc2C)C(C)(C)CCC3(C)C)o1 | 21 |
| CCC(C)CNC(=O)c1ccc(Cc2cc3c(cc2C)C(C)(C)CCC3(C)C)o1 (stereo not drawn) [drawing 1499] | 73 |
| Cc1cc2c(cc1Cc1ccc(C(=O)N3CCC3)o1)C(C)(C)CCC2(C)C | 63 |
| CCCCN(CC)CCNC(=O)c1ccc(Cc2cc3c(cc2C)C(C)(C)CCC3(C)C)o1 | 101 |

Same assay, conditions: 1 h, substrate remaining; 10 uM compound; closer to zero = closer to 100% inhibition; read-out: S%R 10 uM mGnRHR

| SMILES | remaining activity at 10 µM [%] |
| --- | --- |
| CCOC(=O)CN(Cc1ccccc1)C(=O)c1ccc(Cc2cc3c(cc2C)C(C)(C)CCC3(C)C)o1 [Compound 536] | 38 |
| Cc1cc2c(cc1Cc1ccc(C(=O)N(Cc3cccnc3)CC3CC=CCC3)o1)C(C)(C)CCC2(C)C (stereo not drawn) [Compound 691] | 7 |
| Cc1cc2c(cc1Cc1ccc(C(=O)NCCc3c[nH]c4ccc(Cl)cc34)o1)C(C)(C)CCC2(C)C [Compound 509] | 16 |
| Cc1cc2c(cc1Cc1ccc(C(=O)N(Cc3cccn3C)C3CCN(Cc4ccccc4)C3)o1)C(C)(C)CCC2(C)C (stereo not drawn) [Compound 623] | 2 |
| Cc1cc2c(cc1Cc1ccc(C(=O)NCCN3CCNC3=O)o1)C(C)(C)CCC2(C)C [Compound 520] | -3 |
| Cc1cc2c(cc1Cc1ccc(C(=O)NCC3CCNCC3)o1)C(C)(C)CCC2(C)C [Compound 483] | 10 |
| Cc1cc2c(cc1Cc1ccc(C(=O)NCCCN3CCCCC3C)o1)C(C)(C)CCC2(C)C (stereo not drawn) [Compound 494] | -7 |
| Cc1cc2c(cc1Cc1ccc(C(=O)NC(C)CCCC(C)C)o1)C(C)(C)CCC2(C)C (stereo not drawn) [Compound 587] | 29 |
| CCC(C)CNC(=O)c1ccc(Cc2cc3c(cc2C)C(C)(C)CCC3(C)C)o1 (stereo not drawn) [Compound 568] | 28 |
| Cc1cc2c(cc1Cc1ccc(C(=O)N(CCC#N)Cc3ccco3)o1)C(C)(C)CCC2(C)C [Compound 705] | 23 |
| Cc1cc2c(cc1Cc1ccc(C(=O)NC3CCC3)o1)C(C)(C)CCC2(C)C [Compound 572] | 41 |
| Cc1cc2c(cc1Cc1ccc(C(=O)NCC3CCN(c4ccnc(Cl)n4)CC3)o1)C(C)(C)CCC2(C)C [Compound 530] | -4 |
| Cc1cc2c(cc1Cc1ccc(C(=O)N3CCC(NC(=O)C(F)(F)F)C3)o1)C(C)(C)CCC2(C)C (stereo not drawn) [Compound 661] | 41 |
| Cc1cc2c(cc1Cc1ccc(C(=O)N(Cc3cccnc3)Cc3cccnc3)o1)C(C)(C)CCC2(C)C [Compound 610] | 0 |
| Cc1cc2c(cc1Cc1ccc(C(=O)NCCc3cccc(C(F)(F)F)c3)o1)C(C)(C)CCC2(C)C [Compound 526] | 9 |
| Cc1cc2c(cc1Cc1ccc(C(=O)N(Cc3ccsc3)C3CCN(Cc4ccccc4)C3)o1)C(C)(C)CCC2(C)C (stereo not drawn) [Compound 612] | 9 |
| Cc1cc2c(cc1Cc1ccc(C(=O)NC3CCCC(Nc4ccnc(NCC5CCCO5)n4)C3)o1)C(C)(C)CCC2(C)C (stereo not drawn) [Compound 473] | -14 |
| Cc1cc2c(cc1Cc1ccc(C(=O)NCC3Nc4ccccc4N3)o1)C(C)(C)CCC2(C)C [Compound 529] | -3 |
| Cc1cc2c(cc1Cc1ccc(C(=O)N3CCC(C(=O)c4ccc(F)cc4)CC3)o1)C(C)(C)CCC2(C)C [Compound 573] | 37 |
| CC(=O)N(C)C1CCN(C(=O)c2ccc(Cc3cc4c(cc3C)C(C)(C)CCC4(C)C)o2)C1 (stereo not drawn) [Compound 544] | 27 |
| Cc1cc2c(cc1Cc1ccc(C(=O)NC(C)(C)C)o1)C(C)(C)CCC2(C)C [Compound 533] | 29 |
| Cc1cc2c(cc1Cc1ccc(C(=O)NCCc3ccc4c(c3)OCO4)o1)C(C)(C)CCC2(C)C [Compound 467] | -1 |

Same assay, conditions: read-out: % Inhib. @ 10 uM mGnRH

| SMILES | inhibition at 10 µM [%] |
| --- | --- |
| Cc1cc2c(cc1Cc1ccc(C(=O)N3CCC4(CC3)OCCCO4)o1)C(C)(C)CCC2(C)C | 99 |

From patent US7101878B1 (Agouron Pharmaceuticals, Inc., priority 1998, dated 2006)
